Experimental data reported in paper PMC10647059, “Molecular Determinants of EphA2 and EphB2 Antagonism Enable the Design of Ligands with Improved Selectivity” (Journal of Chemical Information and Modeling, 2023).

How the values were obtained:
[1] = biological target: T1, EphB2 (Mus musculus, UniProt P54763); assay: ELISA binding assay: displacement and saturation of biotinylated ephrin-B1-Fc on immobilized EphB2; details: data not shown
T1 sequence (P54763 19-543): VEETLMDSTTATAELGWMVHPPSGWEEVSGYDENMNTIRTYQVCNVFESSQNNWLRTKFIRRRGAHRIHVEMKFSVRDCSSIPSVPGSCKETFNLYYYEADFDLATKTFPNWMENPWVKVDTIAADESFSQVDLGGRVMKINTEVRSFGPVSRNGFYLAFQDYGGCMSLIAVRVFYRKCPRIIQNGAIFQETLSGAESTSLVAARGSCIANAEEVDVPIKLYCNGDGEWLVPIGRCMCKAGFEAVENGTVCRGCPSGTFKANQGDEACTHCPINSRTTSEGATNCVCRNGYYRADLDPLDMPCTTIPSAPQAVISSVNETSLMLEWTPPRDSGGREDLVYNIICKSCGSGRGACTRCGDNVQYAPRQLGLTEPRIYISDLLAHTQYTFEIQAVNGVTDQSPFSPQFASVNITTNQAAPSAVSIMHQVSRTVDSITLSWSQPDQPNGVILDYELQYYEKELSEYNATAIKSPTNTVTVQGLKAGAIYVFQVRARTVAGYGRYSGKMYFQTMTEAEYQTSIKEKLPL

[2] = Rat liver microsome stability assay; type: in vitro ADME; details: liver microsomes, pH 7.4, 60 min at 37 °C, NADPH-generating system, read-out: compound recovery at 60 min in rat liver microsomes
Experimental: Experiments were performed as previously described.[59]

[3] = tested on: U251 GBM cell line; assay: MTT cell viability/proliferation assay on U251 glioblastoma cell line; type: cell-based; details: 30 μM, continuous exposure, time course vs control DMSO 0.3%
Experimental: Figure 12 reports the time course of cell growth compared to the control (DMSO 0.3% solution) in the presence of a compound concentration of 30 μM. […] Although additional investigations will be required to confirm this promising behavior, it could be speculated that the higher antiproliferative activity of UniPR1449 compared to that of […], and the reference antagonist UniPR1331, is due to its peculiar pharmacological profile at the level of Eph receptors.
Data are the means of at least three independent experiments ± standard deviation.
Figure S10. Cell viability assay performed using a MTT assay on U251 glioblastoma cell line treated with the approved drug temozolomide and the reference compound UniPR1331.

[4] = physchem; details: pH 7.4
Experimental: Distribution coefficients (D) were measured at physiological pH by the shake-flask method at room temperature (21.0 ± 0.5 °C), employing n-octanol/50 mM MOPS buffer pH 7.4, 0.15 M KCl ionic strength as a biphasic solvent system, after mutual saturation by overnight stirring. A weighed amount of compound was dissolved in water-saturated n-octanol, a buffer was added, and the sample was stirred for 4 h to reach partition equilibrium. Partition phases were centrifuged (9000g, 10 min, 20 °C), separated, diluted with methanol, and dosed by HPLC-ESI-MS/MS.

[5] = Rat plasma stability assay; details: 60 min at 37 °C, 1 μM
Experimental: Pooled plasma (400 μL) was incubated at 37 °C in the presence of 10 mM phosphate-buffered saline (PBS) pH 7.4. 5 μL of compound stock solution in DMSO (final DMSO concentration: 1%; final compound concentration: 1 μM) was added to start the rat plasma stability assay. […] At fixed time points, aliquots of 50 μL were taken, added with two volumes of CH3CN containing as internal standard the structural analogue UniPR126, centrifuged (16,000g, 5 min, 4 °C), and analyzed by HPLC-ESI-MS/MS. The responses (i.e., peak area ratios of test compound vs internal standard) were referred to the zero time-point samples (considered as 100%) to determine the percentage of remaining compound vs time.

[6] = biological target: T2, EphA2 (Mus musculus, UniProt Q03145); assay: ELISA binding assay: displacement and saturation of biotinylated ephrin-A1-Fc on immobilized EphA2-Fc
T2 sequence (Q03145 with tags, fused parts or gaps limits assumed): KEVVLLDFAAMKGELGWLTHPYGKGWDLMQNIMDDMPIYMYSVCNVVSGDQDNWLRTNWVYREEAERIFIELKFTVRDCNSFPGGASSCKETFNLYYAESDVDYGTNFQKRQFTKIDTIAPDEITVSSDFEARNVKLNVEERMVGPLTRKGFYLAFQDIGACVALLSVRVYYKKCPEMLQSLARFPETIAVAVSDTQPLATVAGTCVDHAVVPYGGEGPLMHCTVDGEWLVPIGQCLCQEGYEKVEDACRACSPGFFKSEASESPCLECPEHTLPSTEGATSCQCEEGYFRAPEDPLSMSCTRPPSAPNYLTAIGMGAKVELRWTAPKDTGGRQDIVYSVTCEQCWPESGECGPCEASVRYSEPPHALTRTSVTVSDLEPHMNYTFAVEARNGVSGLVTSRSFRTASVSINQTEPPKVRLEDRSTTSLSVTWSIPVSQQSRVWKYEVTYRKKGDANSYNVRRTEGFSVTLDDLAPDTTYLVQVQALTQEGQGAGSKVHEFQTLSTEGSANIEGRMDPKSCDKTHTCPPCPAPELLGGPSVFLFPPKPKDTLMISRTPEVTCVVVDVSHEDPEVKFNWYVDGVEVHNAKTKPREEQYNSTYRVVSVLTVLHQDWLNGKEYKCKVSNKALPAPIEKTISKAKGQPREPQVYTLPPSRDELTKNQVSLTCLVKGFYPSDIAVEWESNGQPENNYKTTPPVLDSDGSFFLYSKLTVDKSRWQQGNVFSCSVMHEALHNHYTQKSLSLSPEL
Experimental: Compounds were added to the wells at proper concentrations in 0.5% DMSO and incubated at 37 °C for 1 h. Biotinylated ephrin-A1-Fc was added at 37 °C for 4 h. Data are the means of three independent experiments ± standard deviation.
The day after, wells were washed with a washing buffer (PBS 0.05% tween20, pH 7.5) and blocked with a blocking buffer solution (PBS 1% BSA) for 1 h at 37 °C. Compounds were added to the wells at a proper concentration in 0.5% DMSO and incubated at 37 °C for 1 h. […] After 4 h for displacement assays or 5 h for saturation studies, wells were washed and incubated with 100 μL/well Streptavidin-HRP (Sigma S5512) for 20 min at room temperature. Then, wells were washed again with a washing buffer and incubated at room temperature with 0.1 mg/mL tetramethylbenzidine (Sigma T2885) reconstituted in stable peroxide buffer (0,05 M citric acid +0,05 M dibasic sodium phosphate, pH 5). The reaction was quenched with 3 N HCl. Absorbance was read at 450 nm (ELISA plate reader). The IC50 and Ki values were determined using one-site competition nonlinear regression analysis with Prism software (GraphPad Software Inc.).

[7] = biological target: T2, EphA2; assay: Surface plasmon resonance, steady-state analysis on immobilized EphA2-Fc; type: binding; details: EphA2-Fc on CM4 sensorchip; ± standard deviation; read-out: KD (SPR, steady-state)
Experimental: Increasing concentrations of the two compounds were injected over EphA2-Fc immobilized on the surface of a CM SPR4 sensorchip and evaluated for their interaction.
Surface plasmon resonance (SPR) measurements were performed on a BIAcore X100 instrument, using a carboxyl-methyl-dextran-coated sensorchip (CM4, GE-Healthcare).

Row | SMILES | reversibility of binding to EphB2 [1] | remaining at 60 min, 1 μM [2] | effect on U251 cell growth (MTT) [3] | logD at 4 h [4] | stability in rat plasma [5] | reversibility of binding to EphA2 ([6]; 50 μM compound, with or without washing three times with PBS before ephrin-A1-Fc) | Ki ([6]; read-out: Ki for EphA2 (saturation curves of ephrin-A1-Fc, nonlinear regression)) | Kd [7]
1 | C[C@H](CCC(=O)N[C@H](CC(=O)O)Cc1c[nH]c2ccccc12)[C@H]1CCC2C3CC=C4C[C@@H](O)CC[C@]4(C)C3CC[C@@]21C (stereo partly drawn) [UniPR1447, N-(3β-hydroxy-Δ^5-cholen-24-oyl)-L-β-homotryptophan] | fully reversible | 40.3% | did not significantly affect U251 growth | 4.6 ± 0.1 | stable | – | – | –
2 | CC(CCC(=O)NC(CC(=O)O)Cc1cn(S(=O)(=O)c2ccccc2)c2ccccc12)C1CCC2C3CC=C4CC(O)CCC4(C)C3CCC12C [UniPR1449, N-(3β-hydroxy-Δ^5-cholen-24-oyl)-1-benzensulfonyl-L-β-homotryptophan] | – | 62.2% | fully blocked GBM growth | 4.7 ± 0.11 | stable | reversible | 2200 nM | 3800 ± 2400 nM
